Data published in patent publication EP4707280A1, “1,4-CINEOLE DERIVATIVE AND INTERMEDIATE THEREOF, HERBICIDE CONTAINING SAID DERIVATIVE AS ACTIVE INGREDIENT, METHOD FOR USING HERBICIDE, AND METHOD FOR PREPARING AGROCHEMICAL COMPOSITION” (HOKKO CHEMICAL INDUSTRY CO., LTD., priority 2023, dated 2024).

What was measured:
Type in all cases: in vivo
[1] = system: Echinochloa crus-galli var. formosensis; assay: Test Example 1: herbicidal effect test by soil application in paddy rice; conditions: Echinochloa crus-galli, soil, 336 h; 120 g active ingredient per 10 ares; applied immediately after sowing, flooded pots; 14 days after application; read-out: weed inhibition rate
Summary of the method: (§1)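 Treatment: 120 g active ingredient per 10 ares as a water-diluted emulsifiable concentrate, dropped onto flooded pots immediately after sowing. Thirty seeds per species went 0–1 cm into puddled paddy soil with 16:16:16 fertilizer, with ~3 cm flooding maintained in a glass greenhouse.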

[2] = system: Scirpus juncoides; assay: as above; conditions: Schoenoplectiella juncoides, soil, 336 h; 120 g active ingredient per 10 ares; applied immediately after sowing, flooded pots; 14 days after application; read-out: weed inhibition rate
Summary of the method: as §1

[3] = system: Monochoria vaginalis; assay: as above; conditions: Pontederia vaginalis, soil, 336 h; 120 g active ingredient per 10 ares; applied immediately after sowing, flooded pots; 14 days after application; read-out: weed inhibition rate
Summary of the method: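 Inhibition rate (%) read 14 days after treatment, duplicate pots. Water-diluted emulsifiable concentrate was applied by dropper at 120 g active ingredient/10 ares right after sowing. Seeds (30 per species, 0–1 cm deep) went into puddled paddy soil kept flooded at about 3 cm in a greenhouse.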

[4] = system: Digitaria ciliaris; assay: Test Example 3: herbicidal effect test by soil application in upland field; conditions: Digitaria ciliaris, 120 g per 10 ares, sprayed one day after sowing, 14 days after application, read-out: weed inhibition rate
Summary of the method: (§2)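 Weed inhibition (%) was assessed 14 days after treatment, in duplicate per concentration group. Seeds had been mixed into the upper 1 cm of upland alluvial loam, and the soil surface was sprayed one day later with the diluted emulsifiable concentrate at 120 g active ingredient per 10 ares.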

[5] = system: Echinochloa crus-galli; assay: as above; conditions: Echinochloa crus-galli, 120 g per 10 ares, sprayed one day after sowing, 14 days after application, read-out: weed inhibition rate
Summary of the method: as §2

[6] = system: Digitaria ciliaris; assay: Test Example 4: herbicidal effect test by stem and leaf treatment in upland field; conditions: Digitaria ciliaris; 120 g per 10 ares; sprayed seven days after sowing, upland soil; 14 days after application; read-out: weed inhibition rate
[7] = system: Echinochloa crus-galli; assay: as above; conditions: Echinochloa crus-galli; 120 g per 10 ares; sprayed seven days after sowing, upland soil; 14 days after application; read-out: weed inhibition rate
[8] = system: Echinochloa crus-galli var. formosensis; assay: Test Example 6: herbicidal effect test by application during growth period of paddy rice (low dose); conditions: Echinochloa crus-galli; 7.5 g per 10 ares; applied seven days after sowing, flooded pots; 14 days after application; read-out: weed inhibition rate
Summary of the method: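 Puddled, fertilised paddy soil was sown with 30 seeds per species and flooded to about 3 cm. After 7 days in a glass greenhouse, the diluted emulsifiable concentrate went into the water by dropper at 7.5 g/10 a. Effect scored at 14 days.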

[9] = system: Echinochloa crus-galli; assay: Test Example 7: herbicidal effect test by soil application in upland field (low dose); conditions: Echinochloa crus-galli, 7.5 g per 10 ares, sprayed one day after sowing, 14 days after application, read-out: weed inhibition rate
Summary of the method: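 Read-out: weed inhibition rate (%) at 14 d post-treatment, duplicate pots per concentration. Seeds sown in the top 1 cm of upland alluvial loam; emulsifiable concentrate diluted in water and sprayed on the soil surface 1 d after sowing at 7.5 g a.i./10 a (100 L/10 a spray volume).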

[10] = system: Digitaria ciliaris; assay: Test Example 8: herbicidal effect test by stem and leaf treatment in upland field (low dose); conditions: Digitaria ciliaris; 7.5 g per 10 ares; sprayed seven days after sowing, upland soil; 14 days after application; read-out: weed inhibition rate
[11] = system: Echinochloa crus-galli; assay: as above; conditions: Echinochloa crus-galli; 7.5 g per 10 ares; sprayed seven days after sowing, upland soil; 14 days after application; read-out: weed inhibition rate

CC(C)[C@]12C[C@@H](OCc3c(F)cccc3Cl)[C@](C)(CC1=O)O2 [2-28, (1R,4S,5R)-5-((2-chloro-6-fluorobenzyl)oxy)-1-isopropyl-4-methyl-7-oxabicyclo[2.2.1]heptan-2-one]
≥ 80%: pest or weed control at 1200 g/ha [1] | pest or weed control at 1200 g/ha [2] | pest or weed control at 1200 g/ha [3] | inhibition at 1200 g/ha [4] | inhibition at 1200 g/ha [5] | inhibition at 1200 g/ha [6] | inhibition at 1200 g/ha [7] | inhibition at 75 g/ha [8] | inhibition at 75 g/ha [9] | inhibition at 75 g/ha [10] | inhibition at 75 g/ha [11]

C=C1C[C@]2(C)O[C@@]1(C(C)C)C[C@H]2OCc1ccccc1C [2-72, (1R,4S,5R)-1-isopropyl-4-methyl-5-((2-methylbenzyl)oxy)-2-methylene-7-oxabicyclo[2.2.1]heptane]
≥ 80%: pest or weed control at 1200 g/ha [1] | pest or weed control at 1200 g/ha [2] | pest or weed control at 1200 g/ha [3] | inhibition at 1200 g/ha [4] | inhibition at 1200 g/ha [5] | inhibition at 1200 g/ha [6] | inhibition at 1200 g/ha [7] | inhibition at 75 g/ha [8] | inhibition at 75 g/ha [9] | inhibition at 75 g/ha [10] | inhibition at 75 g/ha [11]

C=C1C[C@]2(C)O[C@@]1(C(C)C)C[C@H]2OCc1ccccc1F [2-88, (1R,4S,5R)-5-((2-fluorobenzyl)oxy)-1-isopropyl-4-methyl-2-methylene-7-oxabicyclo[2.2.1]heptane]
≥ 80%: pest or weed control at 1200 g/ha [1] | pest or weed control at 1200 g/ha [2] | pest or weed control at 1200 g/ha [3] | inhibition at 1200 g/ha [4] | inhibition at 1200 g/ha [5] | inhibition at 1200 g/ha [6] | inhibition at 1200 g/ha [7] | inhibition at 75 g/ha [8] | inhibition at 75 g/ha [9] | inhibition at 75 g/ha [10] | inhibition at 75 g/ha [11]

Cc1ccccc1CO[C@@H]1C[C@]2(C(C)C)O[C@@]1(C)C/C2=N\O [2-191, (1R,4S,5R,E)-1-isopropyl-4-methyl-5-((2-methylbenzyl)oxy)-7-oxabicyclo[2.2.1]heptan-2-one oxime]
≥ 80%: pest or weed control at 1200 g/ha [1] | pest or weed control at 1200 g/ha [2] | pest or weed control at 1200 g/ha [3] | inhibition at 1200 g/ha [4] | inhibition at 1200 g/ha [5] | inhibition at 1200 g/ha [6] | inhibition at 1200 g/ha [7] | inhibition at 75 g/ha [8] | inhibition at 75 g/ha [9] | inhibition at 75 g/ha [10] | inhibition at 75 g/ha [11]

CC(C)[C@]12C[C@@H](OCc3ccccc3F)[C@](C)(C/C1=N\O)O2 [2-197, (1R,4S,5R,E)-5-((2-fluorobenzyl)oxy)-1-isopropyl-4-methyl-7-oxabicyclo[2.2.1]heptan-2-one oxime]
≥ 80%: pest or weed control at 1200 g/ha [1] | pest or weed control at 1200 g/ha [2] | pest or weed control at 1200 g/ha [3] | inhibition at 1200 g/ha [4] | inhibition at 1200 g/ha [5] | inhibition at 1200 g/ha [6] | inhibition at 1200 g/ha [7] | inhibition at 75 g/ha [8] | inhibition at 75 g/ha [9] | inhibition at 75 g/ha [10] | inhibition at 75 g/ha [11]

CC(C)[C@]12C[C@@H](OCc3ccc(F)cc3)[C@](C)(CC1=O)O2 [2-349, (1R,4S,5R)-5-((4-fluorobenzyl)oxy)-1-isopropyl-4-methyl-7-oxabicyclo[2.2.1]heptan-2-one]
≥ 80%: pest or weed control at 1200 g/ha [1] | pest or weed control at 1200 g/ha [2] | pest or weed control at 1200 g/ha [3] | inhibition at 1200 g/ha [4] | inhibition at 1200 g/ha [5] | inhibition at 1200 g/ha [6] | inhibition at 1200 g/ha [7] | inhibition at 75 g/ha [8] | inhibition at 75 g/ha [9] | inhibition at 75 g/ha [10] | inhibition at 75 g/ha [11]

CC(C)[C@]12C[C@@H](OCc3cccc(F)c3)[C@](C)(CC1=O)O2 [2-351, (1R,4S,5R)-5-((3-fluorobenzyl)oxy)-1-isopropyl-4-methyl-7-oxabicyclo[2.2.1]heptan-2-one]
≥ 80%: pest or weed control at 1200 g/ha [1] | pest or weed control at 1200 g/ha [2] | pest or weed control at 1200 g/ha [3] | inhibition at 1200 g/ha [4] | inhibition at 1200 g/ha [5] | inhibition at 1200 g/ha [6] | inhibition at 1200 g/ha [7] | inhibition at 75 g/ha [8] | inhibition at 75 g/ha [9] | inhibition at 75 g/ha [10] | inhibition at 75 g/ha [11]

Cc1cccc(F)c1CO[C@@H]1C[C@]2(C(C)C)O[C@@]1(C)CC2=O [2-353, (1R,4S,5R)-5-((2-fluoro-6-methylbenzyl)oxy)-1-isopropyl-4-methyl-7-oxabicyclo[2.2.1]heptan-2-one]
≥ 80%: pest or weed control at 1200 g/ha [1] | pest or weed control at 1200 g/ha [2] | pest or weed control at 1200 g/ha [3] | inhibition at 1200 g/ha [4] | inhibition at 1200 g/ha [5] | inhibition at 1200 g/ha [6] | inhibition at 1200 g/ha [7] | inhibition at 75 g/ha [8] | inhibition at 75 g/ha [9] | inhibition at 75 g/ha [10] | inhibition at 75 g/ha [11]

CC(C)[C@]12C[C@@H](OCc3c(F)cccc3Br)[C@](C)(CC1=O)O2 [2-355, (1R,4S,5R)-5-((2-bromo-6-fluorobenzyl)oxy)-1-isopropyl-4-methyl-7-oxabicyclo[2.2.1]heptan-2-one]
≥ 80%: pest or weed control at 1200 g/ha [1] | pest or weed control at 1200 g/ha [2] | pest or weed control at 1200 g/ha [3] | inhibition at 1200 g/ha [4] | inhibition at 1200 g/ha [5] | inhibition at 1200 g/ha [6] | inhibition at 1200 g/ha [7] | inhibition at 75 g/ha [8] | inhibition at 75 g/ha [9] | inhibition at 75 g/ha [10] | inhibition at 75 g/ha [11]

CC(C)[C@]12C=C[C@](C)(O1)[C@H](OCc1ccccc1)C2 [3-1, (1R,4S,5R)-4-methyl-5-phenylmethoxy-1-isopropyl-7-oxabicyclo[2.2.1]hept-2-ene]
≥ 80%: pest or weed control at 1200 g/ha [1] | pest or weed control at 1200 g/ha [2] | pest or weed control at 1200 g/ha [3] | inhibition at 1200 g/ha [4] | inhibition at 1200 g/ha [5] | inhibition at 1200 g/ha [6] | inhibition at 1200 g/ha [7] | inhibition at 75 g/ha [8] | inhibition at 75 g/ha [9] | inhibition at 75 g/ha [10] | inhibition at 75 g/ha [11]
